Test results taken from paper PMC8126888 (RSC Medicinal Chemistry, 2020).
In brackets after ≈: the same amount, converted by molar mass. Where two headings read alike, the source gives them in different places.

Columns and labels:
[1] = metabolite ID, peak area of substrate or metabolite
[2] = metabolite ID, peak area of substrate or metabolite; remark: listed apart in the source
[3] = test system: primary peritoneal mouse macrophages (PMM); test: cells; conditions: Macrophage
[4] = in vitro; conditions: human, microsomes
[5] = in vitro; conditions: mouse, microsomes; for microsomal CLint at 0.5 h, 0.5 µM: pH 7.4, Microsome Clint,u Mouse, Table 2
[6] = physchem; conditions: HPLC, Ascentis Express RP Amide column
[7] = in vitro; conditions: human; for IC50 at 120 h: PMA-differentiated THP-1 cells; for CC50 at 120 h: THP-1 cells differentiated with PMA
[8] = test system: Leishmania infantum MHOM/MA(BE)/67/ITMAP263 intracellular amastigotes; test: microbe, parasite or virus in culture; conditions: Macrophage, in Mus musculus
[9] = test system: Leishmania infantum (MHOM/MA/67/ITMAP-263) intracellular amastigotes in THP-1; test: microbe, parasite or virus in culture
[10] = for improvement in the in vitro mouse clearance: versus the preceding analogue
[11] = 6 h incubation in mouse plasma
[12] = in vitro; conditions: plasma
[13] = physchem
[14] = in vitro; conditions: human
[15] = in vitro; conditions: human, HepG2 cells
[16] = test system: axenic L. don. amastigotes (MHOM/SD/62/1S-CL2, LdBOB); test: microbe, parasite or virus in culture; conditions: Leishmania donovani, read-out: L. donovani MHOM/SD/62/1SCL2D axenic-cidal amastigotes IC50
[17] = test system: Trypanosoma cruzi, Tulahuen CL2, beta-galactosidase strain; test: microbe, parasite or virus in culture
[18] = test system: L. donovani MHOM/SD/62/1SCL2D intracellular amastigotes; test: microbe, parasite or virus in culture; conditions: Leishmania donovani, read-out: L. donovani MHOM/SD/62/1SCL2D intracellular amastigotes IC50
[19] = test system: Vero; test: cells; conditions: Chlorocebus sabaeus, read-out: Vero IC50
[20] = test system: Leishmania infantum MHOM/MA(BE)/67/ITMAP263 intracellular amastigotes; conditions: for L. inf. pIC50: intracellular amastigotes in PMM, geometric mean of a minimum of two experiments ± standard error
[21] = test system: primary peritoneal mouse macrophages (PMM); conditions: for PMM pIC50: cytotoxicity to PMM, geometric mean of a minimum of two experiments ± standard error
[22] = human liver microsomes
[23] = pH 7.4
[24] = test system: Trypanosoma cruzi, Tulahuen CL2, beta-galactosidase strain; conditions: read-out: T. cruzi Tulahuen C4 (LacZ) IC50
[25] = test system: MRC-5SV2 cells; test: Cytotoxicity assay on MRC-5SV2 cells (resazurin); conditions: human, 3 days
[26] = test system: primary peritoneal mouse macrophages (PMM); test: Cytotoxicity to PMM (microscopic scoring within susceptibility assay); conditions: Swiss, mouse
[27] = in vitro; conditions: human, HFF-1 cells
[28] = in vitro; conditions: human, HepG2 cells; remark: listed apart in the source
[29] = in vitro; conditions: PAMPA
[30] = test system: Leishmania infantum (MHOM/MA/67/ITMAP-263) intracellular amastigotes in THP-1; conditions: THP-1 host cells, 120 hours
[31] = test system: THP-1 cells; conditions: 120 hours, Alamar Blue
[32] = test system: T. b. brucei (Squib-427); test: microbe, parasite or virus in culture; conditions: Trypanosoma brucei, RHODESIENSE
[33] = read-out: PMM pIC50 (converted)
[34] = pH 7.4, elog D, HPLC measured log D, pH 7.4
[35] = read-out: L. inf. pIC50, intracellular amastigotes in PMM (converted), geometric mean of a minimum of two experiments ± standard error
[36] = THP-1, 120 h, read-out: Intracellular activity pIC50 L. inf. in THP-1 (converted)
[37] = pH 7.4, Microsome Clint,u Human, Table 2, intrinsic in vitro clearance, liver microsomes
[38] = intrinsic in vitro clearance, liver microsomes
[39] = PBS, pH 7.4, aqueous buffer, kinetic from dmso stock
[40] = read-out: L. infantum MHOM/MA(BE)/67/ITMAP263 intracellular amastigotes IC50
[41] = pH 7.4, HLM CLint (uL/min/mg), human liver microsomes
[42] = pH 7.4, MLM CLint (uL/min/mg), mouse liver microsomes
[43] = read-out: L. Inf. pIC50, from L. infantum intracellular amastigote IC50 (converted)
[44] = read-out: L. infantum MHOM/MA(BE)/67/ITMAP263 intracellular amastigotes IC50 (uM), intracellular amastigotes
[45] = MRC5, read-out: T. cruzi Tulahuen C4 (LacZ) IC50 (uM)

SMILES: COc1ccc(C(=O)NC2COC2)cc1S(=O)(=O)N(Cc1ccc(F)cc1)Cc1ccc(F)cc1 [Compound 23]
- Area% Mouse [1]: 89.1%
- Area% Human [2]: 84.9%
- IC50 [3, 33]: > 64.6 µM
- microsomal CLint at 0.5 μM ([4]; pH 7.4, Microsome Clint Human, intrinsic in vitro clearance, liver microsomes): 178 µL/min/mg
- microsomal CLint at 0.5 μM ([5]; pH 7.4, Microsome Clint Mouse, intrinsic in vitro clearance, liver microsomes): 395 µL/min/mg
- chromatographic logD [6, 34]: 4
- IC50 at 120 h [7]: > 64.6 µM
- IC50 [8, 35]: 0.794 µM
- IC50 [9, 36]: 8.51 µM

SMILES: COc1ccc(OC)c(S(=O)(=O)N(C)Cc2ccc(F)cc2)c1 [Compound 37]
- Area% Mouse [1]: 76.1%
- Area% Human [2]: 22.5%
- IC50 [3, 33]: > 64.6 µM
- microsomal CLint at 0.5 μM [4, 37]: 414 µL/min/mg
- chromatographic logD [6, 34]: 3.7
- IC50 [8, 35]: 11.7 µM

SMILES: COc1ccc(C(=O)N2CCOCC2)cc1S(=O)(=O)N(Cc1ccc(F)cc1)Cc1ccc(C(F)(F)F)nc1 [Compound 46]
- improvement in the in vitro mouse clearance [10]: 4 fold
- Mouse plasma stability (6 h) [11]: 22 % remaining
- IC50 [3, 33]: > 64.6 µM
- microsomal CLint at 0.5 h, 0.5 µM [4, 37]: 265 µL/min/mg
- microsomal CLint at 0.5 h, 0.5 µM [5, 38]: 534 µL/min/mg
- chromatographic logD [6, 34]: 3.7
- fraction unbound ([12]; Plasma protein binding (PPB)): 0.041
- solubility kinetic ([13]; aqueous medium, pH 2.0, pH 2): 3.8 µg/mL (≈ 6.7 µM)
- solubility kinetic ([13]; aqueous medium, pH 7.4, pH 7.4): 3.2 µg/mL (≈ 5.64 µM)
- IC50 [8, 35]: 1.74 µM

SMILES: COc1ccc(C(=O)N2CCOCC2)cc1S(=O)(=O)N(Cc1ccccc1)Cc1cnc(C(F)(F)F)nc1 [Compound 47]
- improvement in the in vitro mouse clearance [10]: 4 fold
- Mouse plasma stability (6 h) [11]: 42 % remaining
- IC50 [3, 33]: > 64.6 µM
- microsomal CLint at 0.5 h, 0.5 µM [4, 37]: 73 µL/min/mg
- microsomal CLint at 0.5 h, 0.5 µM [5, 38]: 152 µL/min/mg
- chromatographic logD [6, 34]: 3.5
- fraction unbound ([12]; Plasma protein binding (PPB)): 0.117
- solubility kinetic ([13]; aqueous medium, pH 2.0, pH 2): 11.3 µg/mL (≈ 20.5 µM)
- solubility kinetic ([13]; aqueous medium, pH 7.4, pH 7.4): 6.2 µg/mL (≈ 11.3 µM)
- IC50 at 120 h [7]: > 64.6 µM
- IC50 [8, 35]: 4.47 µM
- IC50 [9, 36]: > 64.6 µM

SMILES: COc1cc(S(=O)(=O)N(Cc2ccccc2)Cc2ccccc2)c(OC)cc1C [DNDI0002644002]
- KS PBS - pH 2: 0.41 ug/mL
- IC50 ([3]; read-out: PMM IC50): > 64 µM
- microsomal CLint at 0.5 μM ([4]; pH 7.4, HLM CLint, human liver microsomes): 920 µL/min/mg
- microsomal CLint at 0.5 μM ([5]; pH 7.4, MLM CLint, mouse liver microsomes): 1080 µL/min/mg
- solubility kinetic [13, 39]: 0.41 µg/mL (≈ 0.996 µM)
- CC50 at 120 h [7]: > 50 µM
- CC50 at 3 days [14]: > 64 µM
- CC50 [15]: 39 µM
- IC50 ([8]; read-out: L. Inf. pIC50 (converted)): 0.537 µM
- IC50 [8, 40]: 0.54 µM
- IC50 [16]: 1500 nM
- IC50 ([17]; MRC5, read-out: T. cruzi Tulahuen C4 (LacZ) IC50): > 64 µM
- IC50 [18]: 12 µM

SMILES: O=S(=O)(c1ccc2nncn2c1)N(Cc1cccc(F)c1)c1ccc2c(c1)OCO2 [DNDI0003321886]
- CC50 at 120 h [7]: > 50 µM
- IC50 [19]: 35 µM
- CC50 [15]: > 50 µM
- IC50 [18]: > 50 µM

SMILES: COc1ccc(CN(c2ccc3c(c2)OCO3)S(=O)(=O)c2ccc3nncn3c2)cc1 [DNDI0003321888]
- CC50 at 120 h [7]: > 50 µM
- IC50 [19]: > 50 µM
- CC50 [15]: > 50 µM
- IC50 [18]: > 50 µM

SMILES: COc1ccc(S(=O)(=O)N2Cc3ccccc3CC2C(=O)NCc2ccccc2)cc1 (centres unmarked) [DNDI0003338988]
- CC50 at 120 h [7]: > 50 µM
- IC50 [19]: 29 µM
- CC50 [15]: > 50 µM
- IC50 [18]: > 50 µM

SMILES: COc1ccc(C2c3cccn3CCN2S(=O)(=O)c2ccc3ccccc3c2)cc1 (centres unmarked) [DNDI0003355838]
- CC50 at 120 h [7]: > 50 µM
- IC50 [19]: > 50 µM
- CC50 [15]: > 50 µM
- IC50 [18]: > 50 µM

SMILES: CC[C@H](Cc1ccccc1)[S+]([O-])c1ccccc1OC (some centres unmarked) [DNDI0003362002]
- L. Inf. pIC50 ([20]; from L. infantum intracellular amastigote IC50): 4.45
- IC50 [20, 40]: 35.3 µM
- SI (vs PMM) ([21]; PMM IC50 / L. infantum IC50): 2
- HLM CLint [22]: 390 µL/min/mg
- MLM CLint ([10]; mouse liver microsomes): 3623 µL/min/mg
- eLogD [23]: 3.7
- IC50 [24]: 30.8 µM
- CC50 [25]: > 64 µM
- IC50 [26]: > 64 µM

SMILES: COc1ccc(C(=O)N2CCOCC2)cc1S(=O)(=O)N(Cc1ccc(F)cc1)Cc1ccc(C(F)(F)F)nc1 [DNDI0003389644]
- KS PBS - pH 2 (ug/mL): 3.79 ug/mL
- IC50 ([3]; read-out: PMM IC50 (uM)): > 64 µM
- microsomal CLint at 0.5 μM [4, 41]: 190 µL/min/mg
- microsomal CLint at 0.5 μM [5, 42]: 163 µL/min/mg
- fraction unbound ([12]; PPB (%)): 0.0409
- solubility kinetic [13, 39]: 3.32 µg/mL (≈ 5.85 µM)
- CC50 at 3 days [14]: > 64 µM
- CC50 [27]: 36.9 µM
- CC50 [28]: > 64 µM
- Papp [29]: 10 ×10⁻⁶ cm/s
- IC50 [8, 43]: 1.74 µM
- IC50 [8, 44]: 1.74 µM
- IC50 [17, 45]: 3.39 µM

SMILES: COc1ccc(C(=O)N2CCOCC2)cc1S(=O)(=O)N(Cc1ccccc1)Cc1cnc(C(F)(F)F)nc1 [DNDI0003425509]
- KS PBS - pH 2 (ug/mL): 11.3 ug/mL
- IC50 ([3]; read-out: PMM IC50 (uM)): > 64 µM
- microsomal CLint at 0.5 μM [4, 41]: 76 µL/min/mg
- microsomal CLint at 0.5 μM [5, 42]: 78 µL/min/mg
- chromatographic logD ([6]; pH 7.4, eLogD, experimental): 3.1
- fraction unbound ([12]; PPB (%)): 0.117
- solubility kinetic [13, 39]: 6.22 µg/mL (≈ 11.3 µM)
- CC50 at 120 h [7]: > 64 µM
- CC50 at 3 days [14]: > 64 µM
- CC50 [27]: > 64 µM
- CC50 [28]: > 64 µM
- Papp [29]: 15.2 ×10⁻⁶ cm/s
- IC50 [8, 43]: 4.37 µM
- IC50 [8, 44]: 4.35 µM
- IC50 ([9]; THP-1, read-out: L. infantum MHOM/MA/67/ITMAP263 intracellular amastigotes THP-1 cells IC50 (uM)): > 64 µM
- IC50 [17, 45]: 7.07 µM

SMILES: COc1ccc(OC)c(S(=O)(=O)N(Cc2ccc(F)cc2)Cc2oc(C)nc2C)c1 [SI51]
- L. inf. pIC50 [20]: 5.63±0.04
- PMM pIC50 [21]: < 4.19
- Intracellular activity pIC50 L. inf. in THP-1 [30]: 4.51±0.03
- pIC50 Cytotoxicity THP-1 [31]: < 4.19

SMILES: COc1ccc(S(C)(=O)=O)cc1S(=O)(=O)N(Cc1ccccc1)CC(C)(C)C [SI52]
- L. inf. pIC50 [20]: 5.56±0.28
- PMM pIC50 [21]: < 4.19
- Intracellular activity pIC50 L. inf. in THP-1 [30]: 4.32±0.01
- pIC50 Cytotoxicity THP-1 [31]: < 4.19

SMILES: Cc1ccc(C(=O)Nc2ccc(S(=O)(=O)O)c3cc(S(=O)(=O)O)cc(S(=O)(=O)O)c23)cc1NC(=O)c1cccc(NC(=O)Nc2cccc(C(=O)Nc3cc(C(=O)Nc4ccc(S(=O)(=O)O)c5cc(S(=O)(=O)O)cc(S(=O)(=O)O)c45)ccc3C)c2)c1 [Suramin]
- IC50 [32]: ~50 nM
